Melting point and IC50 data for 25 compounds are collected here from patent US20070191431A1, “2-Amino-5-piperidinylimidazolone compounds and use thereof for beta-secretase modulation” (Wyeth, priority 2005, published 2007).

Data set [1] addresses human BACE1 (Homo sapiens, UniProt P56817). Briefly: BACE-1 fluorescent kinetic assay (Example 88). Format: biochemical. The protocol: Evaluation of BACE-1 Binding Affinity of Test Compounds
Fluorescent Kinetic Assay
Dilution and mixing steps: total reaction volume: 100 μL
100 μM substrate dilution in 1× PBS was prepared, and
Fluorescence Readings: Readings at Aex 320 nm and Aem 420 nm are taken every 40 sec for 30 min at room temperature and the linear slope for substrate cleavage rate (vi) determined.

[2] abbreviates: 10 nM enzyme, 25 μM substrate WABC-6, Na-Acetate pH 4.5, room temperature, read-out: BACE1 (IC50 μM).

Structures are written as SMILES. Like-named read-outs stand apart in the source and are kept apart here.

human BACE1, sequence (P56817 46-501): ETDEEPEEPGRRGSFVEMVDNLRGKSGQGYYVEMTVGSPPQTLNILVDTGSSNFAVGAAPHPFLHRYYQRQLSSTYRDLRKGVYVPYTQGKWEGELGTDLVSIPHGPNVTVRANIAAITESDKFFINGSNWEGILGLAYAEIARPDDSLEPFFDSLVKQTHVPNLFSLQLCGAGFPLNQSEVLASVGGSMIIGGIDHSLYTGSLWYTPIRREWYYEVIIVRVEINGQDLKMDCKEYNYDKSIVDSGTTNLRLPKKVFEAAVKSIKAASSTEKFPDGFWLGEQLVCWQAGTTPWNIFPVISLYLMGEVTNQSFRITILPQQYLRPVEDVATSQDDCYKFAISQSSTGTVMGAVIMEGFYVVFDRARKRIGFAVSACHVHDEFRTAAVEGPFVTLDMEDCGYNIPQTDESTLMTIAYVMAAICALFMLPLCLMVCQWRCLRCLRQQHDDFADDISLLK

Take `COc1ccc(C(=O)N2CCC(C3(c4cccc(-c5ccccc5)c4)N=C(N)N(C)C3=O)CC2)cc1OC` (centres unmarked) [Example 13, 2-amino-5-(1,1′-biphenyl-3-yl)-5-[1-(3,4-dimethoxybenzoyl)piperidin-4-yl]-3-methyl-3,5-dihydro4H-imidazol-4-one]: the melting point (commonly the temperature of the solid-liquid transition) lay in the range of 139 to 141 °C. Besides, the 50% inhibitory concentration (IC50) (in general, the concentration that inhibits the measured activity by half) in data set [1] (setting [2]) was in the range of 0.01 to 1 µM.

The compound `CN1C(=O)C(c2cccc(-c3ccccc3)c2)(C2CCN(C(=O)c3ccc4c(c3)OCO4)CC2)N=C1N` (centres unmarked) [Example 14, 2-amino-5-[1-(1,3-benzodioxol-5-ylcarbonyl)piperidin-4-yl]-5-(1,1′-biphenyl-3-yl)-3-methyl-3,5-dihydro4H-imidazol-4-one] registered a melting point of 133 to 135 °C. Moreover, the half-maximal inhibitory concentration (IC50) in data set [1] (setting [2]) fell in the range of 1.01 to 3 µM.

Turning to `CN1C(=O)C(c2cccc(-c3ccccc3)c2)(C2CCN(C(=O)c3ccc(C#N)cc3)CC2)N=C1N` (centres unmarked) [Example 16, 4-({4-[2-amino-4-(1,1′-biphenyl-3-yl)-1-methyl-5-oxo-4,5-dihydro-1H -imidazol-4-yl]piperidin-1-yl}carbonyl)benzonitrile], the melting point was in the range of 152 to 154 °C. For the same compound, the IC50 in data set [1] (setting [2]) was 0.01 to 1 µM.

As to `CN1C(=O)C(c2cccc(-c3ccccc3)c2)(C2CCN(C(=O)c3cccc(C#N)c3)CC2)N=C1N` (centres unmarked) [Example 17, 3-({4-[2-amino-4-(1,1′-biphenyl-3-yl)-1-methyl-5-oxo-4,5-dihydro-1H -imidazol-4-yl]piperidin-1-yl}carbonyl)benzonitrile], the melting point was in the range of 141 to 143 °C. For the same compound, the IC50 in data set [1] (setting [2]) fell in the range of 1.01 to 3 µM.

Regarding `CN1C(=O)C(c2cccc(-c3ccccc3)c2)(C2CCN(C(=O)c3ccccc3C#N)CC2)N=C1N` (centres unmarked) [Example 18, 2-({4-[2-amino4-(1,1′-biphenyl-3-yl)-1-methyl-5-oxo-4,5-dihydro-1H -imidazol-4-yl]piperidin-1-yl}carbonyl)benzonitrile], the melting point was in the range of 144 to 146 °C. The IC50 in data set [1] (setting [2]) was over 3 µM.

In turn, `CCCc1ccc(C(=O)N2CCC(C3(c4cccc(-c5ccccc5)c4)N=C(N)N(C)C3=O)CC2)cc1` (centres unmarked) [Example 21, 2-amino-5-(1,1′-biphenyl-3-yl)-3-methyl-5-[1-(4-propylbenzoyl)piperidin4-yl]-3,5-dihydro4H-imidazol-4-one] yielded a melting point of 133 to 135 °C. Further, the half-inhibitory concentration (IC50) in data set [1] (setting [2]) lay within 0.01 to 1 µM.

Consider `CCCOc1ccc(C(=O)N2CCC(C3(c4cccc(-c5ccccc5)c4)N=C(N)N(C)C3=O)CC2)cc1` (centres unmarked) [Example 22, 2-amino-5-(1,1′-biphenyl-3-yl)-3-methyl-5-[1-(4-propoxybenzoyl)piperidin4-yl]-3,5-dihydro4H-imidazol-4-one], for which the melting point lay within 131 to 133 °C. Moreover, the half-inhibitory concentration (IC50) in data set [1] (setting [2]) fell in the range of 0.01 to 1 µM.

`CN1C(=O)C(c2cccc(C3CCCCC3)c2)(C2CCN(C(=O)c3ccccc3)CC2)N=C1N` (centres unmarked) [Example 24, 2-amino-5-(1-benzoylpiperidin-4-yl)-5-(3-cyclohexylphenyl)-3-methyl-3,5-dihydr-4H -imidazol-4-one]: the melting point was in the range of 189 to 190 °C. For the same compound, the IC50 in data set [1] (setting [2]) was 0.01 to 1 µM.

In the case of `CN1C(=O)C(c2ccccc2)(C2CCNCC2)N=C1N` (centres unmarked) [Example 27, 2-Amino-3-methyl-5-phenyl-5-piperidin-4-yl-3,5-dihydro-4H -imidazol-4-one], the melting point is 269 to 271 °C. The half-maximal inhibitory concentration (IC50) in data set [1] is over 3 µM.

The compound `COCC(=O)Nc1cccc(C2(C3CCNCC3)N=C(N)N(C)C2=O)c1` (centres unmarked) [Example 32, N-[3-(2-Amino-1-methyl-5-oxo4-piperldin-4-yl-4,5-dihydro-1H -imidazol-4-yl)phenYl]-2-methoxyacetamide] gave a melting point of 170 to 174 °C. Moreover, the 50% inhibitory concentration (IC50) in data set [1] (setting [2]) is over 3 µM.

As to `COCC(=O)Nc1cccc(C2(C3CCN(C(=O)c4ccc(OCc5ccccc5)cc4)CC3)N=C(N)N(C)C2=O)c1` (centres unmarked) [Example 33], the melting point is 149 to 152 °C. Further, the IC50 in data set [1] (setting [2]) was in the range of 0.01 to 1 µM.

Compound `COCC(=O)Nc1cccc(C2(C3CCN(C(=O)c4ccc(O)cc4)CC3)N=C(N)N(C)C2=O)c1` (centres unmarked) [Example 34, N-(3-{2-Amino-4-[1-(4-hydroxybenzoyl)piperidin4-yl]-1-methyl-5-oxo-4,5-dihydro-1H-imidazol-4-yl}phenyl)-2-methoxyacetamide] came in with a melting point of 184 to 187 °C. The IC50 in data set [1] (setting [2]) was in the range of 0.01 to 1 µM.

The compound `COCC(=O)Nc1cccc(C2(C3CCN(C(=O)c4ccc(C(=O)OC)cc4)CC3)N=C(N)N(C)C2=O)c1` (centres unmarked) [Example 35, Methyl 4-{[4-(2-amino-4-{3-[(methoxyacetyl)amino]phenyl}-1-methyl-5-oxo-4,5-dihydro-1H-imidazol-4-yl)piperidin-1-yl]carbonyl}benzoate] yielded a melting point of 161 to 163 °C. Further, the half-maximal inhibitory concentration (IC50) in data set [1] (setting [2]) is 0.01 to 1 µM.

In turn, `COCC(=O)Nc1cccc(C2(C3CCN(C(=O)c4ccc(C(=O)[O-])cc4)CC3)N=C(N)N(C)C2=O)c1.[Na+]` (centres unmarked) [Example 36, Sodium 4-{[4-(2-Amino4-{3-[(methoxyacetyl)amino]phenyl}-1-methyl-5-oxo-4,5-dihydro-1H-imidazol-4-yl)piperidin-1-yl]carbonyl}benzoate] returned a melting point of over 250 °C. Moreover, the half-maximal inhibitory concentration (IC50) in data set [1] (setting [2]) was 0.01 to 1 µM.

In the case of `COCC(=O)Nc1cccc(C2(C3CCN(C(=O)C4CC4)CC3)N=C(N)N(C)C2=O)c1` (centres unmarked) [Example 37], the melting point was > 130 °C (dec.). The half-maximal inhibitory concentration (IC50) in data set [1] (setting [2]) was in the range of 0.01 to 1 µM.

Compound `COCC(=O)Nc1cccc(C2(C3CCN(C(=O)CC4CCCCC4)CC3)N=C(N)N(C)C2=O)c1` (centres unmarked) [Example 38] registered a melting point of 131 to 133 °C. Besides, the IC50 in data set [1] (setting [2]) is 0.01 to 1 µM.

As for `COCC(=O)Nc1cccc(C2(C3CCN(C(=O)C4CCCC4)CC3)N=C(N)N(C)C2=O)c1` (centres unmarked) [Example 40], the melting point was in the range of 134 to 136 °C. In addition, in data set [1] (setting [2]), the IC50 was 0.01 to 1 µM.

On to `COCC(=O)Nc1cccc(C2(C3CCN(C(=O)C(C)C)CC3)N=C(N)N(C)C2=O)c1` (centres unmarked) [Example 42], for which the melting point lay in the range of 145 to 148 °C. In addition, the IC50 in data set [1] (setting [2]) is 0.01 to 1 µM.

`CCC(CC)C(=O)N1CCC(C2(c3cccc(NC(=O)COC)c3)N=C(N)N(C)C2=O)CC1` (centres unmarked) [Example 43] yielded a melting point of 102 to 105 °C. In data set [1] (setting [2]), the half-maximal inhibitory concentration (IC50) was in the range of 1.01 to 3 µM.

On to `COCC(=O)Nc1cccc(C2(C3CCN(C(=O)C4CCC(=O)O4)CC3)N=C(N)N(C)C2=O)c1` (centres unmarked) [Example 44], for which the melting point was 118 to 120 °C. Further, in data set [1] (setting [2]), the IC50 was 0.01 to 1 µM.

As for `COCC(=O)Nc1cccc(C2(C3CCN(C(=O)c4ccccc4Cl)CC3)N=C(N)N(C)C2=O)c1` (centres unmarked) [Example 45], the melting point was 130 to 133 °C. In addition, the 50% inhibitory concentration (IC50) in data set [1] (setting [2]) lay in the range of 0.01 to 1 µM.

On to `COCC(=O)Nc1cccc(C2(C3CCN(C(=O)c4cc5ccccc5o4)CC3)N=C(N)N(C)C2=O)c1` (centres unmarked) [Example 46], for which the melting point was 139 to 142 °C. The 50% inhibitory concentration (IC50) in data set [1] (setting [2]) fell in the range of 0.01 to 1 µM.

`C#CCCC(=O)N1CCC(C2(c3cccc(NC(=O)COC)c3)N=C(N)N(C)C2=O)CC1` (centres unmarked) [Example 47] gave a melting point of 135 to 138 °C. The IC50 in data set [1] (setting [2]) is over 3 µM.

Compound `COCC(=O)Nc1cccc(C2(C3CCN(C(=O)CCC(C)C)CC3)N=C(N)N(C)C2=O)c1` (centres unmarked) [Example 49] had a melting point of 105 to 107 °C. For the same compound, the half-inhibitory concentration (IC50) in data set [1] (setting [2]) lay within 0.01 to 1 µM.

The compound `COCC(=O)Nc1cccc(C2(C3CCN(C(=O)c4cccc(F)c4)CC3)N=C(N)N(C)C2=O)c1` (centres unmarked) [Example 50] gave a melting point of 150 to 153 °C. The IC50 in data set [1] (setting [2]) lay within 0.01 to 1 µM.
